Source: patent US20070269513A1, “Liver selective drug therapy” (priority 1999, published 2007)
Where “and” joins values, the source holds several entries; their conditions need not be identical. Identical values can stand only once. One block for each compound: values may come before it.

Key:
[1] = Kinetic study of slow-release propranolol granules given by mouth to anaesthetised dogs; portal venous and systemic blood concentration; type: in vivo; settings: for Propranolol Concentration, Systemic: systemic blood
Source text: Experiments were undertaken in four dogs under general anaesthesia induced with halothane and then maintained with ketamine and xylazine. Cardiovascular status was monitored by measurement of heart rate and blood pressure and by measurement of arterial blood gases. Ventilation was assisted to maintain blood gases within physiological limits. A catheter was placed in the femoral artery to permit sampling of arterial blood. After laparotomy, a catheter was placed in a mesenteric vein and advanced to the portal vein to permit sampling of portal venous blood samples.
Propranolol was administered by mouth on the evening before, and then again one hour before the study as a dose of 40 mg in granules taken from a 160 mg slow release formulation of propranolol (Cardinol; Pacific Pharmaceuticals New Zealand). […] The animals were sacrificed at the end of he experiment.
The concentration in systemic blood was generally below the level of detection (<5 ug/ml).

[2] = review as at 18 Nov. 2004; cited from earlier work
[3] = FDA MEDWATCH, in words; cited from earlier work
[4] = in vivo; cited from earlier work

- concentration at 60 min ([1]; dog, portal venous whole blood, oral, 40 mg, portal vein, 60 min, individual dogs 1-4): 5800 ng/mL
- concentration in systemic blood ([1]; generally below the level of detection, summary of the table): < 5000 ng/mL
- Propranolol Concentration, Portal Vein ([1]; portal vein, 60 min, individual dogs 1-4): 10.9 µg/mL and 10 µg/mL and 6 µg/mL
- Propranolol Concentration, Portal Vein ([1]; portal vein, 120 min, individual dogs 1-4): <5 µg/mL and 13 µg/mL and 4 µg/mL
- Propranolol Concentration, Systemic ([1]; 30 min, individual dogs 1-4): <5 ug/ml (2×) and 2 ug/ml and <2 ug/ml
- Propranolol Concentration, Systemic ([1]; 120 min, individual dogs 1-4): <5 µg/mL and 2 µg/mL and <2 µg/mL
- Propranolol Concentration, Systemic ([1]; Baseline, individual dogs 1-4): <5 ug/ml (2×) and 3 ug/ml and <2 ug/ml
SMILES: CC(C)NCC(O)COc1cccc2ccccc12 (centres unmarked) [Propranolol, propranolol]
- Propranolol Concentration, Portal Vein ([1]; portal vein, 30 min, individual dogs 1-4): 11.5 µg/mL and 11.8 µg/mL and 13 µg/mL and 2 µg/mL
- Propranolol Concentration, Portal Vein ([1]; portal vein, 90 min, individual dogs 1-4): 22 µg/mL and 14.4 µg/mL and 10 µg/mL and 5 µg/mL
- Propranolol Concentration, Portal Vein ([1]; portal vein, Baseline, 40 mg slow-release granules by mouth evening before and one hour before study, individual dogs 1-4): <5 µg/mL and 28.8 µg/mL and 21 µg/mL and 36 µg/mL
- portal versus systemic concentration (liver selectivity) ([1]; small series in dogs, conclusion in words): concentration gradients between portal and systemic vessels
- Propranolol Concentration, Systemic ([1]; 60 min, individual dogs 1-4): 6.2 µg/mL and <5 µg/mL and 2 µg/mL and <2 µg/mL
- Propranolol Concentration, Systemic ([1]; 90 min, individual dogs 1-4): 5.8 µg/mL and <5 µg/mL and 2 µg/mL and <2 µg/mL

SMILES: CC(C)c1c(C(=O)Nc2ccccc2)c(-c2ccccc2)c(-c2ccc(F)cc2)n1CC[C@@H](O)C[C@@H](O)CC(=O)O [Atorvastatin]
- transient global amnesia cases within Australia [2]: 7 cases

SMILES: COCc1c(C(C)C)nc(C(C)C)c(/C=C/[C@@H](O)C[C@@H](O)CC(=O)O)c1-c1ccc(F)cc1 [Cerivastatin, cerivastatin]
- implication in statin-associated rhabdomyolysis reports [3]: most commonly implicated statin

SMILES: CC[C@H](C)C(=O)O[C@H]1C[C@H](O)C=C2C=C[C@H](C)[C@H](CC[C@@H](O)C[C@@H](O)CC(=O)O)[C@H]21 [Pravastatin]
- transient global amnesia cases within Australia [2]: 3 cases

SMILES: CCC(C)(C)C(=O)O[C@H]1C[C@@H](C)C=C2C=C[C@H](C)[C@H](CC[C@@H]3C[C@@H](O)CC(=O)O3)[C@H]21 [simvastatin]
- half-life [4]: 42 to 240 min
